Tests used:
[1] = test system: Human stomach cancer cell MKN45-Luc; experiment: near-infrared fluorescence observation of abdominal cavity, peritoneal dissemination mouse model; assay type: in vivo; conditions: tail vein 40 nmol/kg, 10 minutes
Excerpt: Human stomach cancer cell MKN45-Luc (5×10^6 cells, purchased from JCRB cell bank of National Institutes of Biomedical Innovation, Health and Nutrition) was intraperitoneally injected into a nude mouse (BALB/cSlc-nu, SPF, male, weight: about 20 g), and the resultant mouse was bred for 15 days to create a nude mouse having peritoneal dissemination. […] The near-infrared fluorescence was not emitted from the abdominal cavity of the normal mouse (FIG. 22).

[2] = test system: Human stomach cancer cell MKN45; experiment: near-infrared fluorescence observation, human stomach cancer cell subcutaneous transplant mouse; assay type: in vivo; conditions: nude mouse, tail vein 120 nmol/kg, observed from above the skin
Excerpt: Human stomach cancer cell MKN45 (1×10^7 cells, purchased from JCRB cell bank of National Institutes of Biomedical Innovation, Health and Nutrition) was subcutaneously transplanted into the right or left side, or the center of the back in the base of the foreleg of a nude mouse (BALB/cSlc-nu, SPF, male, 5 weeks old), and the resultant mouse was bred for 10 days to create a mouse having a stomach cancer tissue grown therein. After anesthetizing the mouse (weight: about 20 g) by subcutaneous administration of ketamine (75 mg/kg) and medetomidine (1 mg/kg), the compound III (120 nmol/kg weight) was administered through the tail vein, and near-infrared fluorescence was observed from above the skin on the back side with a near-infrared fluorescence imaging device (pde-neo, manufactured by Hamamatsu Photonics K.K.).

[3] = test system: human glioblastoma cells U-251MG; experiment: near-infrared fluorescence imaging after topical administration into tumor, human glioblastoma subcutaneous transplant model; assay type: in vivo; conditions: U-251MG glioblastoma, SCID mouse, 0.02 to 0.1 mL of 1 mg/mL, 1 hour after administration
Protocol: (§1) A human cancer cell transplant model mouse was created as follows: • (Head and neck/tongue cancer) To immunodeficient SCID mice (weight: 17 g to 23 g), about 10^6 human tongue cancer cells CAL27 (purchased from American Type Culture Collection: ATCC) were subcutaneously administered, and the resultant mice were grown for 49 days to create tumor models. • (Brain cancer/neuroblastoma) To immunodeficient SCID mice (weight: 17 g to 23 g), about 10^6 human neuroblastoma cells SH-SY5Y (purchased from ATCC) were subcutaneously administered, and the resultant mice were grown for 90 days to create tumor models. • (Brain cancer/glioblastoma) To immunodeficient SCID mice (weight: 17 g to 23 g), about 10^6 human glioblastoma cells U-251MG (obtained from European Collection of Authenticated Cell Cultures) were subcutaneously administered, and the resultant mice were grown for 90 days to create tumor models.
(§2) Subsequently, to the tumor of each of the mouse models, 0.02 to 0.1 mL of a saline containing the compound III (concentration of the compound III: 1 mg/mL) was topically administered, and fluorescence imaging was conducted transdermally with a near-infrared fluorescence camera (Fluobeam, manufactured by Fluoptics) (excitation wavelength: 780 nm, detection wavelength: 800 nm or more).

[4] = test system: RenCa cell; experiment: near-infrared fluorescence imaging of liver, liver cancer-bearing mouse (RenCa, intravenous inoculation); assay type: in vivo; conditions: tail vein 120 nmol/kg, after 10 minutes, laparotomy
Protocol: Metastatic spontaneous renal cell carcinoma line from BALB/c mouse, RenCa cell (1×10^6 cells, purchased from CLS Cell Lines Service GmbH, Eppelheim, Germany) was intravenously inoculated into a mouse (BALB/cCrSlc, SPF, female, 7 weeks old) under anesthesia by subcutaneous administration of ketamine (75 mg/kg) and medetomidine (1 mg/kg), and the resultant mouse was bred for 18 days to cause liver cancer therein. The mouse was anesthetized by subcutaneous administration of ketamine (75 mg/kg) and medetomidine (1 mg/kg), and the compound III (120 nmol/kg weight) was administered through the tail vein. After 10 minutes, laparotomy was conducted to perform near-infrared fluorescence imaging with a near-infrared fluorescence imaging device (pde-neo, manufactured by Hamamatsu Photonics K.K.). Near-infrared fluorescence of the compound III from a liver normal tissue was strong, light emission of the compound III from a liver cancer site (framed site in the right image) was very weak, and thus, the normal site and the cancer site could be distinguished from each other depending on the light emission (FIG. 19).

[5] = test system: CT26 (colorectal cancer cell); experiment: near-infrared fluorescence imaging after administration into tumor, CT26 colorectal cancer model; assay type: in vivo, mouse; conditions: 0.02 to 0.05 mL of 1 mg/mL saline, transdermal imaging
Excerpt: A syngeneic tumor transplanted mouse model was created as follows referring to “Gan-Shikkan Model no Sakusei to Riyo (Cancer-Creation and Use of Disease Model)” (Takuro Nakamura, LIC, 2012). • (Breast Cancer) A tumor model was created by breeding a normal Balb/c mouse (weight: about 20 g to 30 g) for 14 days with mouse tumor cell 4T1 subcutaneously administered thereto. • (Colorectal Cancer) A tumor model was created by breeding a normal Balb/c mouse (weight: about 20 g to 30 g) for 14 days with CT26 (colorectal cancer cell) subcutaneously administered thereto. • (Skin Cancer) A tumor model was created by breeding a C57BL/6 mouse (weight: about 15 g to 20 g) for 14 days with B16F1 (skin cancer cell) subcutaneously administered thereto.
Subsequently, to the tumor of each of the model mice, 0.02 to 0.05 mL of a saline containing the compound III or ICG (concentration of the compound III or ICG: 1 mg/mL) was administered, and fluorescence imaging was performed transdermally with a near-infrared fluorescence camera (Fluobeam, manufactured by Fluoptics, http://www.solve-net.com/info/wp-content/uploads/downloads/2013/12/Fluobeam.pdf) (excitation wavelength: 780 nm, detection wavelength: 800 nm or more).

[6] = test system: Human esophageal cancer cell KYSE850; experiment: near-infrared fluorescence observation, human esophageal cancer subcutaneous transplant mouse model; assay type: in vivo; conditions: nude mouse, tail vein 120 nmol/kg, 30 seconds after administration
Excerpt: Human esophageal cancer cell KYSE850 was subcutaneously transplanted into the neck of a nude mouse (BALB/cSlc-nu, SPF, male, 5 weeks old), and the resultant mouse was bred for 18 days to create a mouse having esophageal cancer grown therein. The human esophageal cancer cell KYSE850 was purchased from JCRB cell bank of National Institutes of Biomedical Innovation, Health and Nutrition (Registration Number: JCRB1422, establisher: Graduate School of Pharmaceutical Sciences, Kyoto University, Department of Nanobio Drug Discovery, Yutaka Shimada).
The near-infrared fluorescence from a cancer tissue (circled site) was strong, and that from a normal tissue was weak (FIG. 25). It is noted that fluorescence in an elliptical frame corresponds to near-infrared fluorescence from the right and left kidneys.

[7] = test system: human neuroblastoma cells SH-SY5Y; experiment: near-infrared fluorescence imaging after topical administration into tumor, human neuroblastoma subcutaneous transplant model; assay type: in vivo; conditions: SCID mouse, 0.02 to 0.1 mL of 1 mg/mL, 1 hour after administration
Protocol: as §1, §2

[8] = MKN45-Luc peritoneal dissemination nude mouse

COC1=C(/C=C/C2=[N+](CCC(=O)NCCCO[C@H]3[C@H]4O[C@H]5[C@H](O)[C@@H](O)[C@@H](O[C@H]6[C@H](O)[C@@H](O)[C@@H](O[C@H]7[C@H](O)[C@@H](O)[C@@H](O[C@H]8[C@H](O)[C@@H](O)[C@@H](O[C@H]9[C@H](O)[C@@H](O)[C@@H](O[C@H]%10[C@H](O)[C@@H](O)[C@@H](O[C@@H]([C@@H]3O)[C@@H](CO)O4)O[C@@H]%10CO)O[C@@H]9CO)O[C@@H]8CO)O[C@@H]7CO)O[C@@H]6CO)O[C@@H]5CO)c3ccc4ccccc4c3C2(C)C)CCC/C1=C\C=C1\N(CCC(=O)NCCCO[C@H]2[C@H]3O[C@H]4[C@H](O)[C@@H](O)[C@@H](O[C@H]5[C@H](O)[C@@H](O)[C@@H](O[C@H]6[C@H](O)[C@@H](O)[C@@H](O[C@H]7[C@H](O)[C@@H](O)[C@@H](O[C@H]8[C@H](O)[C@@H](O)[C@@H](O[C@H]9[C@H](O)[C@@H](O)[C@@H](O[C@@H]([C@@H]2O)[C@@H](CO)O3)O[C@@H]9CO)O[C@@H]8CO)O[C@@H]7CO)O[C@@H]6CO)O[C@@H]5CO)O[C@@H]4CO)c2ccc3ccccc3c2C1(C)C.[Cl-] [compound III, 3-(3-{[3-(cyclomaltoheptaose-21-O-yl)propyl]amino}-3-oxopropyl)-2-{(1E)-2-[(3E)-3-{(2E)-2-[3-(3-{[3-(cyclomaltoheptaose-21-O-yl)propyl]amino}-3-oxopropyl)-1,1-dimethyl-1,3-dihydro-2H-benzo[e]indol-2-ylidene]ethylidene}-2-methoxycyclohexa-1-en-1-yl]ethene-1-yl}-1,1-dimethyl-1H-benzo[e]indol-3-ium chloride]
near-infrared fluorescence of dissemination present in the entire abdominal cavity [1, 8]: emitted the near-infrared fluorescence | near-infrared fluorescence of visually recognizable cancer tissue (nearly necrotic) [1, 8]: did not emit the near-infrared fluorescence | near-infrared fluorescence from abdominal cavity of normal mouse ([1]; normal nude mouse): not emitted | near-infrared fluorescence of stomach cancer tissue versus normal tissue [2]: stronger in a cancer tissue than in a normal tissue | retention inside the tumor (fluorescence imaging) [3]: retained inside the tumor | light emission from liver cancer site [4]: very weak | near-infrared fluorescence from liver normal tissue [4]: strong | retention in tumor (fluorescence imaging) [5]: retained in the tumor | near-infrared fluorescence from esophageal cancer tissue [6]: strong | near-infrared fluorescence from normal tissue [6]: weak | retention inside the tumor (fluorescence imaging) [7]: retained inside the tumor

From patent US20240181087A1, “COMPOSITION FOR CONTRAST IMAGING OF CANCER” (ASTELLAS PHARMA INC., priority 2021, published 2024)
